Measurements: patent publication US20240400521A1, “QUINAZOLINE COMPOUND, COMPOSITION, AND APPLICATION THEREOF” (BEIJING SCITECH-MQ PHARMACEUTICALS LIMITED, priority 2021, published 2024)

Biological target: Ba/F3 EGFR D770_N771insSVD cells (Homo sapiens, UniProt P00533, DUP768-770, cells depend on it)
Assay: Inhibition of cell proliferation, CTG method, Ba/F3 EGFR D770_N771insSVD
Type: cell-based
Conditions: 72 hours, read-out: Ba/F3 EGFR D770_N771insSVD IC50
Source text: The present application examined the in vitro anti-proliferative activity of the compounds of the present disclosure against in vitro cultured HCC-827, Ba/F3-EGFR-VIII and Ba/F3 EGFR D770_N771insSVD cell lines by CTG method.
Reagents and consumables: RPMI1640 (ThermoFisher, Cat. No. C11875500BT); DMEM (ThermoFisher, C11995500BT); fetal bovine serum (Hyclone, Cat. No. SV30087.03); 0.25% trypsin-EDTA (ThermoFisher, Cat. No. 25200072); penicillin-streptomycin (Hyclone, Cat. No. SV30010); DMSO (Life Science, Cat. No. 0231-500ML); CTG assay kit (Promega, Cat. No. G9243); 96-well plate (Corning, Cat. No. 3599); multifunctional plate reader (Perkin Elmer, Cat. No. Envision)
Cell lines: HCC-827 (from ATCC), Ba/F3-EGFR-VIII and Ba/F3 EGFR D770_N771insSVD (all from KYinno Biotechnology (Beijing) Co., Ltd.); all of the above cells were cultured with RPMI1640 medium containing 10% fetal bovine serum, 100 U/mL penicillin, and 100 μg/mL streptomycin in the culture process, and HCC-827 was cultured with DMEM medium containing 10% fetal bovine serum, 100 U/mL penicillin, and 100 μg/mL streptomycin.
• 1. The assay compound was dissolved with DMSO to form a stock solution and a gradient dilution was performed, followed by dilution with the corresponding medium to obtain a solution with 5-fold working concentration. • 2. Cells in logarithmic growth phase were adjusted to specific cell densities by dilution with culture medium, and 80 μL of cell suspension was added to a 96-well plate, such that plating densities of cells of HCC-827, Ba/F3-EGFR-VIII and Ba/F3 EGFR D770_N771insSVD were all 3000 cells/well. The cells of Ba/F3-EGFR-VIII and Ba/F3 EGFR D770_N771insSVD were used directly in the next step (treatment with compound), whereas the HCC-827 needed to be cultured overnight in a 37° C., 5% carbon dioxide gas incubator to adhere to the wall, and then treated with compounds. • 3. 20 μL of compound solution was added to each well of the 96-well plate that had been inoculated with cells. The highest concentration of the assayed compound was 10 μM, 4-fold serial dilution, a total of 9 concentrations, and duplicate wells. A control group without compound was also set up. • 4. The cells were cultured for another 72 hours, and then cell viability was detected by CTG assay kit. Signal values were read with a multifunctional plate reader (Perkin Elmer). GraphPad Prism software was used to create a dose-response curve and IC50 was calculated.

Chain of Ba/F3 EGFR D770_N771insSVD cells (P00533 with tags, fused parts or gaps DUP768-770): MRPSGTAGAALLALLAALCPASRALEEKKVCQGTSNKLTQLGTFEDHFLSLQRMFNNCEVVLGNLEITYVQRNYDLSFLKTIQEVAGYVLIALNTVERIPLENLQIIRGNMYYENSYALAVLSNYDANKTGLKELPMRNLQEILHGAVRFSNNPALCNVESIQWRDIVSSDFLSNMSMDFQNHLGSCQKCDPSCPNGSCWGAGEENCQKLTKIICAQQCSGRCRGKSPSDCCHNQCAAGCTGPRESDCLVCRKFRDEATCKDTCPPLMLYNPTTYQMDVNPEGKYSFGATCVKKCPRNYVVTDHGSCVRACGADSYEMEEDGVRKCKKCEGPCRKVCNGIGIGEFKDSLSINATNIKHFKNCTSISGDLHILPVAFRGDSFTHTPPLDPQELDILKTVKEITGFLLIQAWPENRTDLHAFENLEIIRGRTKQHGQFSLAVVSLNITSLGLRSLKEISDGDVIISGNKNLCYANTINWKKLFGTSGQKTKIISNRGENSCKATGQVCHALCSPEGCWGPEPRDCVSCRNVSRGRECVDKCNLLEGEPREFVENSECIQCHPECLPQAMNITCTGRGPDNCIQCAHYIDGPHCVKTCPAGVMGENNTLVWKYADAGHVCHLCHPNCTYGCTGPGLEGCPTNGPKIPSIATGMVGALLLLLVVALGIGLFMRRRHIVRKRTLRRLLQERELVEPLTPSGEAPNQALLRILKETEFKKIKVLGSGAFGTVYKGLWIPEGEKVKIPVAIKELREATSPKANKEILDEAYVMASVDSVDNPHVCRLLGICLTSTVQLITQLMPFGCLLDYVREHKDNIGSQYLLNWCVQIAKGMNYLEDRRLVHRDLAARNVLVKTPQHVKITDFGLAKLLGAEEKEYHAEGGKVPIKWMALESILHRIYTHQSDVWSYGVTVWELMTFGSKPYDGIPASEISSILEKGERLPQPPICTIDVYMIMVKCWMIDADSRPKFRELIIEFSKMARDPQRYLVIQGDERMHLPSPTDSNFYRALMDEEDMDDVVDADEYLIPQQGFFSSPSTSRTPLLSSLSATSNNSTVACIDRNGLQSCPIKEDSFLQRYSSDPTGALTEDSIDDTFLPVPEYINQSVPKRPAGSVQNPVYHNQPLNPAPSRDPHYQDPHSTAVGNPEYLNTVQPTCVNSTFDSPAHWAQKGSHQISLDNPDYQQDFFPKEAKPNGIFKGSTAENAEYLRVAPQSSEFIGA

Structure (SMILES): COc1c(NC(=O)/C=C/CN(C)C)ccc2ncnc(Nc3cccc(Cl)c3F)c12 [Example 1, (E)-N-(4-((3-chloro-2-fluorophenyl)amino)-5-methoxyquinazolin-6-yl)-4-(dimethylamino)but-2-enamide]
- GI50: 50 to 500 nM
